Each compound was assayed on HBsAg (assay: HBsAg assay: inhibition of HBsAg in HepG2.2.15 cells (chemiluminescence immunoassay of supernatant)). Details: Hepatitis B virus, HepG2.2.15, 144 h, read-out: sAg EC50, HepG2.2.15 cells; HBsAg in supernatant at day 6 after exposure to compound; 0.5% DMSO.
Format: cell-based, hepatitis B virus
Outline: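 Secreted HBsAg quantified by CLIA in day-6 supernatants of HepG2.2.15 cultures given compound dilutions at 0.5% final DMSO, with one compound/medium replenishment after 2–3 days. Dose-response fits gave EC50 (50% inhibition); viability checked separately by CellTiter-Glo.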
Compound `Fc1cc(C2CC2c2cnc(-c3ncccn3)nc2)cc(N2CCCC2)c1Cl` (single isomer, unassigned) [Example 90, trans-5-(2-(4-Chloro-3-fluoro-5-(pyrrolidin-1-yl)phenyl)cyclopropyl)-2,2′-bipyrimidine] has an EC50 of 28 nM.
`COc1cccnc1-c1ncc([C@@H]2C[C@H]2c2cc(F)c(F)c(OC)c2)cn1` (relative stereo) [Example 180, trans-5-(2-(3,4-Difluoro-5-methoxyphenyl)cyclopropyl)-2-(3-methoxypyridin-2-yl)pyrimidine] showed an EC50 of 1000 nM.
With `COCCOC1CN(c2cc([C@@H]3C[C@H]3c3cnc(-c4ncccn4)nc3)cc(F)c2F)C1` (relative stereo) [Example 212, trans-5-(2-(3,4-Difluoro-5-(3-(2-methoxyethoxy)azetidin-1-yl)phenyl)cyclopropyl)-2,2′-bipyrimidine] the EC50 was 30 nM.
`COc1ccc([C@@H]2C[C@H]2c2cnc(-c3ncccn3)nc2)c(F)c1` (relative stereo) [Example 1, trans-5-(2-(2-Fluoro-4-methoxyphenyl)cyclopropyl)-2,2′-bipyrimidine] was tested, and the EC50 was 200 nM.
`COc1cc(C2CC2c2cnc(-c3ncccn3)nc2C)ccc1F` (single isomer, unassigned) [Example 17, trans-5-(2-(4-Fluoro-3-methoxyphenyl)cyclopropyl)-4-methyl-2,2′-bipyrimidine] gave an EC50 of 650 nM.
`Fc1ccc([C@@H]2C[C@H]2c2ccnc(-c3ncccn3)n2)cc1F` (relative stereo) [Example 4, trans-4-(2-(3,4-Difluorophenyl)cyclopropyl)-2,2′-bipyrimidine] was tested, and the EC50 was 7000 nM.
Compound `CC(=O)Nc1cc(C2CC2c2cnc(-c3ncccn3)nc2)ccc1Cl` (single isomer, unassigned) [Example 205, trans-N-(5-(2-([2,2′-Bipyrimidin]-5-yl)cyclopropyl)-2-chlorophenyl)acetamide] has an EC50 of 510 nM.
Compound `CC(C)(C)S(=O)(=O)C1CN(c2cc([C@@H]3C[C@H]3c3cnc(-c4ncccn4)nc3)cc(F)c2F)C1` (relative stereo) [Example 211, trans-5-(2-(3-(3-(tert-Butylsulfonyl)azetidin-1-yl)-4,5-difluorophenyl)cyclopropyl)-2,2′-bipyrimidine] has an EC50 of 110 nM.
In the case of `COc1cc([C@@H]2C[C@H]2c2cnc(-c3ncccn3)nc2)ccc1OC(F)(F)F` (relative stereo) [Example 152, trans-5-(2-(3-Methoxy-4-(trifluoromethoxy)phenyl)cyclopropyl)-2,2′-bipyrimidine], the EC50 is reported as 700 nM.
`COc1cc(C2CC2c2cnc(-c3ncccn3)c3ccccc23)ccc1F` (single isomer, unassigned) [Example 193, trans-4-(2-(4-Fluoro-3-methoxyphenyl)cyclopropyl)-1-(pyrimidin-2-yl)isoquinoline] was tested, and the EC50 was 43000 nM.

Same assay, conditions: read-out: sAg EC50; HepG2.2.15 cells; HBsAg in supernatant at day 6 after exposure to compound; 0.5% DMSO
`COCCCn1ncc2c(C3CC3c3cnc(-c4ncccn4)nc3)cc(F)c(F)c21` (single isomer, unassigned) [Example 265, trans-4-(2-([2,2′-Bipyrimidin]-5-yl)cyclopropyl)-6,7-difluoro-1-(3-methoxypropyl)-1H-indazole] was tested, and the EC50 was 61 nM.
With `Fc1cc(C2CC2c2cnc(-c3ncccn3)nc2)cc(N2CC3(CCOCC3)C2)c1F` (single isomer, unassigned) [Example 137, trans-2-(5-(2-([2,2′-Bipyrimidin]-5-yl)cyclopropyl)-2,3-difluorophenyl)-7-oxa-2-azaspiro[3.5]nonane] the EC50 was 74 nM.
In the case of `Fc1ccc(C2CC2c2cnc(-c3ncccn3)nc2)cc1OC(F)(F)F` (single isomer, unassigned) [Example 39, trans-5-(2-(4-Fluoro-3-(trifluoromethoxy)phenyl)cyclopropyl)-2,2′-bipyrimidine], the EC50 is reported as 2000 nM.
With `Fc1cc(C2CC2c2cnc(-c3ncccn3)nc2)cc(NC2CCCC2)c1F` (single isomer, unassigned) [Example 208, trans-5-(2-([2,2′-Bipyrimidin]-5-yl)cyclopropyl)-N-cyclopentyl-2,3-difluoroaniline] the EC50 was 110 nM.
With `CO[C@H]1CCN(c2cc(C3CC3c3cnc(-c4ncccn4)nc3)cc(F)c2F)C1` (single isomer, unassigned) [Example 103] the EC50 was 8 nM.
`Fc1ccc(C2CC2c2cnc(-c3ncccn3)nc2)cc1Cl` (single isomer, unassigned) [Example 29, trans-5-(2-(3-Chloro-4-fluorophenyl)cyclopropyl)-2,2′-bipyrimidine] was tested, and the EC50 was 780 nM.
With `COc1cc(C2CC2c2cnc(-c3ncccn3)nc2)ccc1F` (single isomer, unassigned) [Example 10, trans-5-(2-(4-Fluoro-3-methoxyphenyl)cyclopropyl)-2,2′-bipyrimidine] the EC50 was 40 nM.
In the case of `COc1cc(C2CC2c2cnc(-c3ncccn3)nc2N2CCCCC2)ccc1F` (single isomer, unassigned) [Example 144, trans-5-(2-(4-Fluoro-3-methoxyphenyl)cyclopropyl)-4-(piperidin-1-yl)-2,2′-bipyrimidine], the EC50 is reported as 25000 nM.
With `COCCOc1cc(C2CC2c2cnc(-c3ncccn3)nc2)cc(F)c1F` (single isomer, unassigned) [Example 134, trans-5-(2-(3,4-Difluoro-5-(2-methoxyethoxy)phenyl)cyclopropyl)-2,2′-bipyrimidine] the EC50 was 300 nM.
`COc1cc(C2CC2c2cnc(-c3ncccn3)nc2)cc(Cl)c1F` (single isomer, unassigned) [Example 149, trans-5-(2-(3-Chloro-4-fluoro-5-methoxyphenyl)cyclopropyl)-2,2′-bipyrimidine] gave an EC50 of 62 nM.
`Fc1cc(C2CC2c2cnc(-c3ncccn3)nc2)cc(OC2CCCC2)c1F` (single isomer, unassigned) [Example 245, trans-5-(2-(3-(Cyclopentyloxy)-4,5-difluorophenyl)cyclopropyl)-2,2′-bipyrimidine] was tested, and the EC50 was 5000 nM.
In the case of `Fc1cc(C2CC2c2cnc(-c3ncccn3)nc2)cc(-n2ccnc2)c1F` (single isomer, unassigned) [Example 181, trans-5-(2-(3,4-Difluoro-5-(1H-imidazol-1-yl)phenyl)cyclopropyl)-2,2′-bipyrimidine], the EC50 is reported as 390 nM.
Work on `Fc1ccc(C2CC2c2cnc(-c3ncccn3)nc2)cc1OC(F)F` (single isomer, unassigned) [Example 186, trans-5-(2-(3-(Difluoromethoxy)-4-fluorophenyl)cyclopropyl)-2,2′-bipyrimidine] yielded an EC50 of 1600 nM.
Compound `Fc1cc(C2CC2c2cnc(-c3ncccn3)nc2)cc(F)c1F` (single isomer, unassigned) [Example 161, trans-5-(2-(3,4,5-Trifluorophenyl)cyclopropyl)-2,2′-bipyrimidine] has an EC50 of 10000 nM.
`COC1CN(c2cc(C3CC3c3cnc(-c4ncccn4)nc3)ccc2F)C1` (single isomer, unassigned) [Example 47, trans-5-(2-(4-Fluoro-3-(3-methoxyazetidin-1-yl)phenyl)cyclopropyl)-2,2′-bipyrimidine] was tested, and the EC50 was 370 nM.
With `CN1CCN(c2cc(C3CC3c3cnc(-c4ncccn4)nc3)ccc2F)CC1` (single isomer, unassigned) [Example 187, trans-5-(2-(4-Fluoro-3-(4-methylpiperazin-1-yl)phenyl)cyclopropyl)-2,2′-bipyrimidine] the EC50 was 15000 nM.
With `CC(=O)N1CC[C@H](Nc2cc(C3CC3c3cnc(-c4ncccn4)nc3)cc(F)c2F)C1` (single isomer, unassigned) [Example 224] the EC50 was 5000 nM.
For `Fc1ccc(C2CC2c2ccnc(-c3ncccn3)n2)cc1F` (single isomer, unassigned) [Example 6, trans-4-(2-(3,4-Difluorophenyl)cyclopropyl)-2,2′-bipyrimidine], the EC50 was 10000 nM.
`COc1cnn(-c2cc(C3CC3c3cnc(-c4ncccn4)nc3)cc(F)c2F)c1` (single isomer, unassigned) [Example 252, trans-5-(2-(3,4-Difluoro-5-(4-methoxy-1H-pyrazol-1-yl)phenyl)cyclopropyl)-2,2′-bipyrimidine] showed an EC50 of 14 nM.
`COc1cc(C2CC2c2cnc(-c3ncccn3)nc2C2CCCCC2)ccc1F` (single isomer, unassigned) [Example 78, trans-4-Cyclohexyl-5-(2-(4-fluoro-3-methoxyphenyl)cyclopropyl)-2,2′-bipyrimidine] was tested, and the EC50 was 11000 nM.
For `COc1cc(C2CC2c2cnc(-c3ncccn3)nc2)ccc1Cl` (single isomer, unassigned) [Example 34, trans-5-(2-(4-Chloro-3-methoxyphenyl)cyclopropyl)-2,2′-bipyrimidine], the EC50 was 150 nM.
In the case of `COc1cc(F)cc(C2CC2c2cnc(-c3ncccn3)nc2)c1` (single isomer, unassigned) [Example 112, trans-5-(2-(3-Fluoro-5-methoxyphenyl)cyclopropyl)-2,2′-bipyrimidine], the EC50 is reported as 500 nM.
In the case of `CO[C@H]1CCN(c2cc(C3CC3c3cnc(-c4ncccn4)nc3)cc(Cl)c2F)C1` (single isomer, unassigned) [Example 117], the EC50 is reported as 11 nM.
Work on `COc1cc(C2CC2c2cnc(-c3ncccn3)nc2)c(Cl)cc1Cl` (single isomer, unassigned) [Example 89, trans-5-(2-(2,4-Dichloro-5-methoxyphenyl)cyclopropyl)-2,2′-bipyrimidine] yielded an EC50 of 610 nM.
Work on `COc1cc(C2CC2c2cnc(-c3ncccn3)nc2-c2ccc3nc(C)sc3c2)ccc1F` (single isomer, unassigned) [Example 141, trans-6-(5-(2-(4-Fluoro-3-methoxyphenyl)cyclopropyl)-[2,2′-bipyrimidin]-4-yl)-2-methylbenzo[d]thiazole] yielded an EC50 of 1200 nM.
Compound `O=C1CCCN1c1cc(C2CC2c2cnc(-c3ncccn3)nc2)ccc1F` (single isomer, unassigned) [Example 198, trans-1-(5-(2-([2,2′-Bipyrimidin]-5-yl)cyclopropyl)-2-fluorophenyl)pyrrolidin-2-one] has an EC50 of 430 nM.
In the case of `Fc1ccc(C2CC2c2cnc(-c3ncccn3)nc2)cc1N1CCC1` (single isomer, unassigned) [Example 82, trans-5-(2-(3-(Azetidin-1-yl)-4-fluorophenyl)cyclopropyl)-2,2′-bipyrimidine], the EC50 is reported as 110 nM.

From US20230083973A1, “SUBSTITUTED CYCLOPROPYL-2,2'-BIP[…], ANALOGUES THEREOF, AND METHODS USING SAME” (priority 2019, published 2023)
